Test results taken from patent US12297457B2, “Esophageal tissue and/or organoid compositions and methods of making same” (Children's Hospital Medical Center, priority 2017, dated 2025).
“Also recorded” adds a separate entry of the source.

Experiments:
Type in all cases: cell-based, human
foregut spheroids = test: Anterior-posterior patterning of foregut spheroids (qPCR, IF); settings: for regional identity of foregut spheroids (HNF1β, SOX2, PROX1, HNF6): shorter duration of treatment following DE formation, day 6 spheroids
Procedure: Confluent hPSC cultures were treated with Acutase (STEMCELL Technologies) to resuspend as single cells in mTeSR1 and Y-27632 (10 μM, Tocris) and plated on Matrigel. On the following day, differentiation into definitive endoderm was carried out as previously described (McCracken et al., 2014). Briefly, cells were treated with Activin A (100 ng mL-1, R&D systems, Minneapolis, Minn.) and BMP4 (50 ng mL-1, R&D systems) on the first day in RPMI 1640 media (Life Technologies). Cells in the following two days were treated with only Activin A (100 ng mL-1) in RPMI 1640 with increasing concentrations 0.2% and 2% of HyClone defined fetal bovine serum (dFBS, GE Healthcare Life Sciences).
For anterior foregut monolayer cultures, cells were treated for 3 days in Noggin (200 ng mL-1) in RPMI 1640 with 2% dFBS, with all-trans retinoic acid (2 μM, Sigma, St. Louis, Mo.) the 3rd day.
Alternately, for the generation of anterior foregut spheroids, from definitive endoderm, cells were treated with FGF4 (500 ng mL-1, R&D systems), Noggin (200 ng mL-1) for 3 days in RPMI 1640 with 2% dFBS. Additional factors were tested during this time (described in results), such as CHIR99021 (“chiron” or “chr”, 2 μM, Tocris), Wnt3a (500 ng mL-1, R&D systems), SB431542 (10 μM, Tocris), DEAB (10 μM, Sigma), and retinoic acid (2 μM).
Tissue cultures were fixed with 4% paraformaldehyde at either room temperature for 15 minutes, 4° C. for 2 hours for cryosectioning, or 4° C. overnight for paraffin embedding/sectioning and mouse embryos. For paraffin embedding and sectioning, following fixation, tissues were dehydrated and embedded into paraffin blocks. Afterwards, paraffin-sectioned slides were deparaffinized and subjected to antigen retrieval in 10 mM sodium citrate for 30 minutes prior to staining. For cryosectioning, tissues were thoroughly washed in PBS, left in 30% sucrose overnight, embedded in OCT compound (VWR), and sectioned at a thickness of 8 μm. Commonly, slides were then permeabilized with 0.5% TritonX-100 in PBS for 10 minutes, blocked in 5% normal donkey serum (Jackson ImmunoResearch) for 1 hour, and incubated in primary antibody overnight at 4° C. On the next day, slides were thoroughly washed in PBS, incubated in secondary antibody (at 1:500) for 1 hour, and then thoroughly washed again. For EdU visualization, Applicant used the Click-iT EdU Alexa Fluor 488 Imaging Kit (Invitrogen) prior to blocking. For wholemount immunofluorescence staining, embryos were placed in 100% methanol immediately after fixation. Embryos were then permeabilized with Dent's Bleach (4:1:1 MeOH:DMSO:30% H2O2) for 2 hours at room temperature, rehydrated with methanol washes, and blocked for several hours at room temperature to overnight at 4° C. Primary antibodies were applied and embryos incubated overnight at 4° C. Then, embryos were thoroughly washed in 0.1% TritonX-100 in PBS before incubating in secondary antibodies overnight at 4° C. Finally, embryos were washed again, dehydrated with methanol washes, and cleared with Murray's Clear (2:1 benzyl benzoate:benzyl alcohol, Sigma) at least 15 minutes prior to imaging. For a list of antibodies and dilutions used, please see Table 2.
Spheroid and organoids were harvested in total, including the embedding matrigel. Collagen plugs from the organotypic raft cultures were first removed from the transwell on day 14, and subsequently harvested in total. Total RNA was isolated using the NucleoSpin RNA kit (Macherey-Nagel) and reverse transcribed to cDNA using the SuperScript VILO cDNA synthesis kit (ThermoFisher Scientific). For qRT-PCR, Applicant used Quantitect SYBR-Green master mix (Qiagen) and ran the reaction on a QuantStudio 6 machine (ThermoFisher Scientific). For a list of primers used, please see Table 1.

HEOs [1] = test: IL-13 treatment of HEOs, eosinophilic esophagitis model (qPCR, Western blot, IF, EdU, H&E, electron microscopy)
Procedure: (§1) Anterior foregut spheroids were transferred into 50 μL droplets of Matrigel, and are cultured for 3-58 days in the base (“Gut”) media of Advanced DMEM/F12 (ThermoFisher Scientific) supplemented with B27 supplement (1×, ThermoFisher Scientific), N2 supplement (1×, ThermoFisher Scientific), HEPES (13 mM, ThermoFisher Scientific), L-Glutamine (2 mM ThermoFisher Scientific), penicillin/streptomycin (1×, ThermoFisher Scientific), and EGF (100 ng mL^−1, R&D systems). In addition to this base media, the first three days were supplemented with Noggin (200 ng mL^−1), FGF10 (50 ng mL^−1), and CultureOne supplement (1×, ThermoFisher Scientific). FGF10 and CultureOne supplementation is continued until the end of the first week in three-dimensional culture. Media was replaced every 3-4 days. For EdU labeling, media was supplemented with EdU (10 μM Invitrogen) for a defined period of time, and was removed by washing with sterile PBS twice before replacing with media without EdU.
(§2) For the generation of anterior foregut spheroids, from definitive endoderm, cells were treated with Wnt3a (500 ng mL-1, R&D systems) for 2 days, and FGF4 (500 ng mL-1, R&D systems), Noggin (200 ng mL-1) for 3 days in RPMI 1640 with 2% dFBS. Three-dimensional culture and differentiation of anterior foregut spheroids into human esophageal organoids were obtained as described above.
(§3) Tissue cultures were fixed with 4% paraformaldehyde at either room temperature for 15 minutes (for monolayer cultures), or 4° C. for overnight (for organoids). Tissues were thoroughly washed in PBS and stained for monolayer cultures, while organoids were thoroughly washed and then left in 30% sucrose overnight, embedded in OCT compound (VWR), and sectioned at a thickness of 8 μm. Slides were then permeabilized with 0.5% TritonX-100 in PBS for 10 minutes, blocked in 5% normal donkey serum (Jackson ImmunoResearch) for 1 hour minimum, and incubated in primary antibody overnight at 4° C. On the next day, slides were thoroughly washed in PBS, incubated in secondary antibody (at 1:500) for 1 hour, and then thoroughly washed again. For EdU visualization, the Click-iT EdU Alexa Fluor 488 Imaging Kit (Invitrogen) was used prior to blocking.
(§4) Monolayer cultures and organoids were harvested in total, including the plated/embedding matrigel. Total RNA was isolated using the NucleoSpin RNA kit (Macherey-Nagel) and reverse transcribed to cDNA using the SuperScript VILO cDNA synthesis kit (ThermoFisher Scientific). For qRT-PCR, Applicant used Quantitect SYBR-Green master mix (Qiagen) and ran the reaction on a QuantStudio 6 machine (ThermoFisher Scientific).

HEOs [2] = test: BMP activation in late stage HEOs (IF, EdU, qPCR)
Procedure: as §1, §2, §3, §4

[3] = 6-week-old HEOs, BMP4 100 ng/mL for additional 2 weeks

`CCN(CC)c1ccc(C=O)cc1` [DEAB] was tested, and the “TP63 and pharyngeal marker expression of spheroids” value (foregut spheroids; cultures containing DEAB (blocking RA synthesis)) was “spheroids with minimal TP63 expression and increased levels of the pharyngeal markers PAX9 and OTX2”.

In the case of `CC1=C(/C=C/C(C)=C/C=C/C(C)=C/C(=O)O)C(C)(C)CCC1` [RA, all-trans retinoic acid], the “marker expression after RA treatment” value (foregut spheroids; 1 day of RA) is reported as “promotes expression of TP63 and KRT4 and not posterior foregut markers GATA4 and PDX1; also recorded: spheroids that express TP63” and the “marker expression after RA treatment” value (foregut spheroids; RA for 4 days) is reported as “express posterior foregut markers, GATA4 and PDX1”.

`Cc1c[nH]c(-c2cnc(NCCNc3ccc(C#N)cn3)nc2-c2ccc(Cl)cc2Cl)n1` [chiron, CHIR99021] was tested, and the “gene expression profile of spheroids, chiron versus Wnt3a” value (foregut spheroids; one day of chiron treatment, qPCR) was “same gene expression profile as those generated with 2 days of Wnt3a” and the “regional identity of foregut spheroids (HNF1β, SOX2, PROX1, HNF6)” value (foregut spheroids) was “formation of anterior foregut (AFG) spheroids expressing HNF1β and SOX2, with low levels of posterior foregut markers PROX1 and HNF6”.

In the case of “IL-13: a cytokine known to enact broad changes in the esophagus”, the “epithelial morphology by electron microscopy” value (HEOs [1]; IL-13 100 ng/mL for 2 weeks) is reported as “increased spaces between individual cells and a decrease in cell-cell contacts”, the “EdU incorporation in the basal-most p63+ cells” value (HEOs [1]; IL-13 100 ng/mL for 2 weeks, EdU 2 days) is reported as “increased” and the “BMP antagonists NOG and FST expression” value (HEOs [1]; IL-13 100 ng/mL for 2 weeks, qPCR) is reported as “did not upregulate”. The epithelial morphology (HEOs [1]; IL-13 100 ng/mL for 2 weeks, IF, H&E) was “dilated intercellular spaces suprabasally”, the “late differentiation and structural proteins” value (HEOs [1]; IL-13 100 ng/mL, 1-2 weeks) was “downregulated late differentiation and structural proteins DSG1, IVL, and CRNN” and the “PTCH1 expression (read-out for hedgehog signaling)” value (HEOs [1]; IL-13 alone) was “upregulates”. For the same molecule, the “BMP target gene ID3 expression” value (HEOs [1]; day 62 HEOs, qPCR) was “mild increase”, the “IL-13 target gene response” value (HEOs [1]; extended treatment (100 ng/mL, 1 week), Western blot) was “maintained upregulation of some target genes SERPINB13 and CDH26” and the “IL-13 target gene response” value (HEOs [1]; short duration (2 days prior to harvest), day 62 HEOs, qPCR) was “validated the response of target genes CCL26, CDH26, CAPN14, and SERPINB4”.

B1: Wnt3a: recombinant human Wnt3a, Wnt ligand (protein, UniProt P56704 19-352, looked up)
Protein Wnt-3a: SYPIWWSLAVGPQYSSLGSQPILCASIPGLVPKQLRFCRNYVEIMPSVAEGIKIGIQECQHQFRGRRWNCTTVHDSLAIFGPVLDKATRESAFVHAIASAGVAFAVTRSCAEGTAAICGCSSRHQGSPGKGWKWGGCSEDIEFGGMVSREFADARENRPDARSAMNRHNNEAGRQAIASHMHLKCKCHGLSGSCEVKTCWWSQPDFRAIGDFLKDKYDSASEMVVEKHRESRGWVETLRPRYTYFKVPTERDLVYYEASPNFCEPNPETGSFGTRDRTCNVSSHGIDGCDLLCCGRGHNARAERRREKCRCVFHWCCYVSCQECTRVYDVHTCK
For B1, the “regional identity of foregut spheroids (HNF1β, SOX2, PROX1, HNF6)” value (foregut spheroids) was “formation of anterior foregut (AFG) spheroids expressing HNF1β and SOX2, with low levels of posterior foregut markers PROX1 and HNF6”.

B2: BMP4: recombinant human BMP4 (protein, UniProt P12644 293-408, looked up)
Bone morphogenetic protein 4: SPKHHSQRARKKNKNCRRHSLYVDFSDVGWNDWIVAPPGYQAFYCHGDCPFPLADHLNSTNHAIVQTLVNSVNSSIPKACCVPTELSAISMLYLDEYDKVVLKNYQEMVVEGCGCR
For B2, the “state of remaining basal cells (pSMAD1/5/9, p63, SOX2)” value (HEOs [2]; [3]) was “have active BMP signaling (pSMAD1/5/9+) and express p63, but loss expression of SOX2”, the “stratification and differentiation markers” value (HEOs [2]; [3]) was “loss of stratification and expression of differentiation markers” and the EdU incorporation (HEOs [2]; BMP4 treated HEOs, day 62) was “minimal EdU incorporation”. For the same molecule, the CDX2 expression (HEOs [2]; BMP4 treated HEOs, data not shown) was “unchanged”.
